The source made the active and inactive calls. No cut-off for these calls is given here.
Assays:
GBM [1] = experiment: Antiproliferative activity against fluorescently labelled human GBM cells are co-cultured with mature brain organoids differentiated from iPSCs assessed as reduction in total number of GBM cells incubated for 10 days by fluorescent confocal microscopy; format: functional, cell-based; conditions: time 10.0 day
[2] = Toxicity in human mature brain organoids differentiated from iPSCs assessed as decrease in organoid volume and surface area incubated for 10 days; format: cell-based; conditions: 240 h, time 10 day
GBM [3] = experiment: Anti-invasion activity against fluorescently labelled human GBM cells are co-cultured with mature brain organoids differentiated from iPSCs assessed as reduction in number of invading GBM cells incubated for 10 days by fluorescent confocal microscopy; format: functional, cell-based; conditions: time 10.0 day
Aurora kinase B = Aurora kinase B (Homo sapiens, UniProt Q96GD4); experiment: Inhibition of AURKB (unknown origin)
Aurora kinase B, sequence (Q96GD4 whole entry): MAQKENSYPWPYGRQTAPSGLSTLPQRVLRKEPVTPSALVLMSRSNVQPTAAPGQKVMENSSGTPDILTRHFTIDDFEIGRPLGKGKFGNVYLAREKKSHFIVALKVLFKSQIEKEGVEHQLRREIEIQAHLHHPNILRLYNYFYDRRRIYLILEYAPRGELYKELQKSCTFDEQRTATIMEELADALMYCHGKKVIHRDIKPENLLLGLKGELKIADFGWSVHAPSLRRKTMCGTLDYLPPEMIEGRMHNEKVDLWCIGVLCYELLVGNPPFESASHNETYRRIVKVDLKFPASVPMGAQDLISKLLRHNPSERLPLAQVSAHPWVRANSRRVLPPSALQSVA

[4] = Antiproliferative activity against human GBM22 cells assessed as inhibition of cell proliferation incubated for 48 hrs by live/dead fluorescence imaging-based assay; format: functional; conditions: GBM
[5] = Antiproliferative activity against human GBM22 cells assessed as inhibition of cell proliferation incubated for 24 hrs by live/dead fluorescence imaging-based assay; format: functional; conditions: GBM
GBM [6] = experiment: Antiproliferative activity against fluorescently labelled human GBM cells are co-cultured with mature brain organoids differentiated from iPSCs assessed as reduction in total number of GBM cells at 500 nM incubated for 10 days by fluorescent confocal microscopy; format: functional, cell-based; conditions: time 10.0 day
[7] = Toxicity in human mature brain organoids differentiated from iPSCs assessed as decrease in organoid volume and surface area at 500 nM incubated for 10 days; format: cell-based; conditions: 240 h, 0.5 µM, time 10 day
LIM domain kinase 1 = LIM domain kinase 1 (Homo sapiens, UniProt P53667); experiment: Inhibition of LIMK1 (unknown origin)
LIM domain kinase 1, sequence (P53667 whole entry, the tested form may be a part): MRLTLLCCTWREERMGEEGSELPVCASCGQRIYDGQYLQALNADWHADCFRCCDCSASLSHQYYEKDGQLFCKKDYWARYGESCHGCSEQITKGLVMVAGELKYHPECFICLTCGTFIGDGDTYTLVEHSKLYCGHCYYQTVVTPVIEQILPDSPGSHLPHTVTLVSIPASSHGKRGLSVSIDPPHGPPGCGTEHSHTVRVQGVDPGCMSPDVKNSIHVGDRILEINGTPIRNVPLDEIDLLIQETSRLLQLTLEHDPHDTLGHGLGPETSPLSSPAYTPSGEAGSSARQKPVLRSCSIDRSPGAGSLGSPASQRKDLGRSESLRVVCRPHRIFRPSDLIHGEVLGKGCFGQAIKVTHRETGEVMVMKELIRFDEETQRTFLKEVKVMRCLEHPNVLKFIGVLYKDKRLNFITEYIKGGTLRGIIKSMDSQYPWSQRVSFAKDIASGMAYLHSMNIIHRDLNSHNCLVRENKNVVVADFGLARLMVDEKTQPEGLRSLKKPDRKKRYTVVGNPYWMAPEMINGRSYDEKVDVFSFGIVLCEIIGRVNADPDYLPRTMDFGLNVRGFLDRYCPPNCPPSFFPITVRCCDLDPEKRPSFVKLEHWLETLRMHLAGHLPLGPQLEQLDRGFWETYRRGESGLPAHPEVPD

GBM [8] = experiment: Anti-invasion activity against fluorescently labelled human GBM cells are co-cultured with mature brain organoids differentiated from iPSCs assessed as reduction in number of invading GBM cells at 500 nM incubated for 10 days by fluorescent confocal microscopy; format: functional, cell-based; conditions: time 10.0 day
Aurora kinase A = target: T1, Aurora kinase A (Homo sapiens, UniProt O14965); experiment: Inhibition of AURKA (unknown origin)
T1 sequence (O14965 whole entry): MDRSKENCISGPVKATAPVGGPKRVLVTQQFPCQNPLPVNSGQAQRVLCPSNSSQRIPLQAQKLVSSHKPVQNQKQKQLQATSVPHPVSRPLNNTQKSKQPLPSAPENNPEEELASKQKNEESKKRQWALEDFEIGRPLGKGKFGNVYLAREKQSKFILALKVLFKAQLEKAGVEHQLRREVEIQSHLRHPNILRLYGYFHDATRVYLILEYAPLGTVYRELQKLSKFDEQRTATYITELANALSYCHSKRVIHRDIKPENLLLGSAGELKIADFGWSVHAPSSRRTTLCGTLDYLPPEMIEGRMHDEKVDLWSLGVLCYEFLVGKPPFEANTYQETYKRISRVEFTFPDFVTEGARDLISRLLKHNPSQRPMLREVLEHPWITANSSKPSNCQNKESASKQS

[9] = Antiproliferative activity against human GBM22 cells assessed as inhibition of cell proliferation by CellTiter-Glo ATP content assay; format: functional, cell-based; conditions: GBM
GBM [10] = experiment: Antiproliferative activity against fluorescently labelled human GBM cells are co-cultured with mature brain organoids differentiated from iPSCs assessed as reduction in total number of GBM cells by FACS; format: functional, cell-based

With `Cc1csc(-c2nnc(Nc3ccc(Oc4ncccc4-c4ccnc(N)n4)cc3)c3ccccc23)c1` [AMG-900] the Activity (GBM [1]) was “Active” and the Activity [2] was “Non-Toxic”.

With `CC(C)C(=O)Nc1ncc(-c2cc(C(F)F)nn2-c2c(Cl)cccc2Cl)s1` the Activity (GBM [1]) was “Active”, the Activity [2] was “Non-Toxic” and the Activity (GBM [3]) was “Active”.

`CC(C)n1cc(Nc2ncc3ccc(=O)n(C(C)C)c3n2)cn1` showed an IC50 (Aurora kinase B) of 17 nM, an IC50 [4] of 1530 nM and an IC50 [5] of 2460 nM. The Activity (GBM [6]) was “Active”, the Activity [7] was “Toxic” and the IC50 (LIM domain kinase 1) was 137 nM. For the same compound, the Activity (GBM [8]) was “Active”, the IC50 (Aurora kinase A) was 72 nM and the IC50 [9] was 5340 nM. For the same compound, the Activity (GBM [10]) was “Active”.
